Where two headings read alike, the source gives them in different places.
Tests used:
[1] = target: T1, Ba/F3-KDR-transfected cells (Homo sapiens, UniProt P35968, cells depend on it, form not given); assay: Ba/F3-KDR (minus IL3 or plus IL3) cellular proliferation assay; type: cell-based; details: 24 hours, Alamar Blue
T1 construct: BAF3-KDR (MIN IL3 pIC50); other: minus IL3; 24 hours, Alamar Blue
Description: Ba/F3-KDR (Minus IL3 or Plus IL3) (Cellular Proliferation Assay)
(§1) In a 384 well plate, 100 nl of compound dilution in DMSO was sprayed before adding 50 μl cell culture medium (phenol red free RPMI-1640, 10% FBS, 2 mM L-Glutamine and 50 μg/ml Gentamycin) containing 20000 cells per well of Ba/F3-KDR-transfected cells. Cells were put in an incubator at 37° C. and 5% CO2. After 24 hours, 10 μl of Alamar Blue solution (0.5 mM K3Fe(CN)6, 0.5 mM K4Fe(CN)6, 0.15 mM Resazurin and 100 mM Phosphate Buffer) was added to the wells, incubated for 4 hours at 37° C. and 5% CO2 before RFU's (Relative Fluorescence Units) (ex. 540 nm., em. 590 nm.) were measured in a fluorescence plate reader.
(§2) In this assay, the inhibitory effect of different compound concentrations (range 10 μM to 0.1 nM) was determined and used to calculate an IC50 (M) and pIC50 (−log IC50) value. As a counterscreen the same experiment was performed in the presence of 10 ng/ml murine IL3.

[2] = target: T2, Ba/F3-FGFR3-transfected cells (Homo sapiens, UniProt P22607, cells depend on it, form not given); assay: Ba/F3-FGFR3 (minus IL3 or plus IL3) cellular proliferation assay; type: cell-based; details: 24 hours, Alamar Blue
T2 construct: BAF3-FGFR3 (MIN IL3 pIC50); other: minus IL3; 24 hours, Alamar Blue
T2 sequence (P22607 whole entry, looked up, change not shown): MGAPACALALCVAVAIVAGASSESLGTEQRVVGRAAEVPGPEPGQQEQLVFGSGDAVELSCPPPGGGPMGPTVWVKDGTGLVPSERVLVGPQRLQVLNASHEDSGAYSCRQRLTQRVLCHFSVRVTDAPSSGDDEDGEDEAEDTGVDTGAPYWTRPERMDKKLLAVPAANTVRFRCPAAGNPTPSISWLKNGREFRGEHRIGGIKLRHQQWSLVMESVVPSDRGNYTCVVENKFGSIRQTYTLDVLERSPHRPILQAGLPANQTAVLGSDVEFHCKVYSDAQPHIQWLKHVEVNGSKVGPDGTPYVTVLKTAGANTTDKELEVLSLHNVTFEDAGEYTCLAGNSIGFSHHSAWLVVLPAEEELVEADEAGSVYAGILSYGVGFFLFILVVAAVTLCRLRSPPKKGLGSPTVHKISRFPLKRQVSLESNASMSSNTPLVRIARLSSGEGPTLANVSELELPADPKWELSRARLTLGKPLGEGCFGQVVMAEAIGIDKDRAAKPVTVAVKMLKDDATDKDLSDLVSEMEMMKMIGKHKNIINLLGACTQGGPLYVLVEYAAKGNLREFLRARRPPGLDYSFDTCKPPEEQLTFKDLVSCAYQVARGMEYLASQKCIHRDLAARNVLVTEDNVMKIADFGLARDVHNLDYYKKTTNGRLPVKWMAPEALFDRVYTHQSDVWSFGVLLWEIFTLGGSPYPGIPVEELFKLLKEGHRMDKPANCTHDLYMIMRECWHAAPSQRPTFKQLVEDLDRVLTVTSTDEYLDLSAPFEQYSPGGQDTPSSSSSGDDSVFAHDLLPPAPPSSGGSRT
Description: Ba/F3-FGFR3 (Minus IL3 or Plus IL3) (Cellular Proliferation Assay)
as §1, with “Ba/F3-FGFR3-transfected” for “Ba/F3-KDR-transfected”
as §2

[3] = target: FGFR4 (h) (Homo sapiens, UniProt P22455); assay: FGFR4 (enzymatic assay), TR-FRET; type: biochemical; details: 5 μM ATP; pIC50 = -log IC50 (M); read-out: FGFR 4 pIC50 (converted)
Sequence of FGFR4 (h) (P22455 22-802): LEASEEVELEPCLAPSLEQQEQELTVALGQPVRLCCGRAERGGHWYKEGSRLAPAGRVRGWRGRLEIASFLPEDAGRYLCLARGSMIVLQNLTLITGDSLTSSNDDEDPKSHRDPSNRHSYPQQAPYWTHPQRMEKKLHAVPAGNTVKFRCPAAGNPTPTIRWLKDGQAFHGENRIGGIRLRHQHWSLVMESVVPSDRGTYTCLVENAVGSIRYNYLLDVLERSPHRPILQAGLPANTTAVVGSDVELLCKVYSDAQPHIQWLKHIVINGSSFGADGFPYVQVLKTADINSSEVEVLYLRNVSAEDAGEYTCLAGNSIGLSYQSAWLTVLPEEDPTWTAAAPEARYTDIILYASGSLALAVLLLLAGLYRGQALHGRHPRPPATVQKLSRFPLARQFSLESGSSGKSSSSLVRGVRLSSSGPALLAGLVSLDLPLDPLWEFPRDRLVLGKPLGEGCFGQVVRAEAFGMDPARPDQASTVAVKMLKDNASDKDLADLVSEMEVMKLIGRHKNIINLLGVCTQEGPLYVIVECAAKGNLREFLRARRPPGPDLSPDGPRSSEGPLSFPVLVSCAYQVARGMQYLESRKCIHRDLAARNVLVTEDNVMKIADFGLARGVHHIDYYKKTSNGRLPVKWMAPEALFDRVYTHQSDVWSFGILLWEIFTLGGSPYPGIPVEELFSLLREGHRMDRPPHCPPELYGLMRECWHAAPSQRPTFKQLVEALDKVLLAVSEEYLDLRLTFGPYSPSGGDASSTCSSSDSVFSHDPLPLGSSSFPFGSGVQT

[4] = target: FGFR1 (h) (Homo sapiens, UniProt P11362); assay: FGFR1 (enzymatic assay), TR-FRET; type: biochemical
[5] = target: Ba/F3-FGFR4-transfected cells (Homo sapiens, UniProt P22455, cells depend on it, form not given); assay: Ba/F3-FGFR4 cellular proliferation assay; type: cell-based; details: 24 hours, Alamar Blue
Sequence of Ba/F3-FGFR4-transfected cells (P22455 whole entry, looked up, change not shown): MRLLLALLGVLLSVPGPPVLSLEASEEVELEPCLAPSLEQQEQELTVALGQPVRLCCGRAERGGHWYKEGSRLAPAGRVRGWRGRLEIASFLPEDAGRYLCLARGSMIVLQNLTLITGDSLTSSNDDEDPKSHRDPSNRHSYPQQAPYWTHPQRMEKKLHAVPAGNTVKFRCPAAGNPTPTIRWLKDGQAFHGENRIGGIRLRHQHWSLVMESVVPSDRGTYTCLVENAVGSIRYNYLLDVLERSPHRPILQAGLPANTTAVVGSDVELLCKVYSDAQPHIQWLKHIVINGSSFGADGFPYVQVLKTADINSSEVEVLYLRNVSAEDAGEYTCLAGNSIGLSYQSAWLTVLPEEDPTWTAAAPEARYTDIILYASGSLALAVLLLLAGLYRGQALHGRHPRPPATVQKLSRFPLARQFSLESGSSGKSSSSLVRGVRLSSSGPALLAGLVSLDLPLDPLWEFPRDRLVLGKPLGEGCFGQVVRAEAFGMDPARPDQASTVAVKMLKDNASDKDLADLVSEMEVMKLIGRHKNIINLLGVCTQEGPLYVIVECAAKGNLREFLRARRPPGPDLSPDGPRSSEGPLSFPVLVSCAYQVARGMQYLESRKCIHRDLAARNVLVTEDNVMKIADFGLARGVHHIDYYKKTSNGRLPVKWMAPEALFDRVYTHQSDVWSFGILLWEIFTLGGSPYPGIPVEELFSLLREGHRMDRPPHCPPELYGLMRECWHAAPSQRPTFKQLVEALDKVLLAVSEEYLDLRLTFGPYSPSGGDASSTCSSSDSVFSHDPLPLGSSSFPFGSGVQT
Description: Ba/F3-FGFR4 (Cellular Proliferation Assay)
as §1, with “Ba/F3-FGFR4-transfected” for “Ba/F3-KDR-transfected”
In this assay, the inhibitory effect of different compound concentrations (range 10 μM to 0.1 nM) was determined and used to calculate an IC50 (M) and pIC50 (−log IC50) value.

[6] = target: FGFR3 (h) (Homo sapiens, UniProt P22607); assay: FGFR3 (enzymatic assay), TR-FRET; type: biochemical
[7] = target: FGFR2 (h) (Homo sapiens, UniProt P21802); assay: FGFR2 (enzymatic assay), TR-FRET; type: biochemical
[8] = target: T3, Ba/F3-FGFR1-transfected cells (Homo sapiens, UniProt P11362); assay: Ba/F3-FGFR1 (minus IL3 or plus IL3) cellular proliferation assay; type: cell-based; details: 24 hours, Alamar Blue
T3 construct: other: minus IL3; 24 hours, Alamar Blue
T3 sequence (P11362 whole entry, change not shown): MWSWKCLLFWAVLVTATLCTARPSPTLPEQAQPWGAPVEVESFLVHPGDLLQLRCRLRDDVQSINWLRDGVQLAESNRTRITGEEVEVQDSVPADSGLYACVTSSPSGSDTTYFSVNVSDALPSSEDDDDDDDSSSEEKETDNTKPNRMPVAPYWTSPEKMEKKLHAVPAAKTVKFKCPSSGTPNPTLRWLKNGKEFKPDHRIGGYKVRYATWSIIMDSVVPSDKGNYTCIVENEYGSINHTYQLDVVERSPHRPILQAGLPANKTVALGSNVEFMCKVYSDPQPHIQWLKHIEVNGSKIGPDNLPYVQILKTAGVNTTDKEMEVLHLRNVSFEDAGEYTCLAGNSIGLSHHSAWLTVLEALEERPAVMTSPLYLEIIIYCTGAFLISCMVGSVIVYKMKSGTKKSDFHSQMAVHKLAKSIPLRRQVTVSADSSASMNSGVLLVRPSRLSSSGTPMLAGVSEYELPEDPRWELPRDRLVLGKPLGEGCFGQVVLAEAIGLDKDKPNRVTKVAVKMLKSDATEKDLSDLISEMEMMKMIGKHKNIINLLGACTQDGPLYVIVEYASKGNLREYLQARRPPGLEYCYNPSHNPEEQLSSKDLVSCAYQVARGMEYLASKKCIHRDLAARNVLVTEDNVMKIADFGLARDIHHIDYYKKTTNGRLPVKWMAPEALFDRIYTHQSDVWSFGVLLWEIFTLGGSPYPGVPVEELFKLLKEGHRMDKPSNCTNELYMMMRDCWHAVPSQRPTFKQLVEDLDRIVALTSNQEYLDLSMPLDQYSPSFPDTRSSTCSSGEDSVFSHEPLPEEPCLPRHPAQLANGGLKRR
Description: Ba/F3-FGFR1 (Minus IL3 or Plus IL3) (Cellular Proliferation Assay)
as §1, with “Ba/F3-FGFR1-transfected” for “Ba/F3-KDR-transfected”
as §2

[9] = target: KDR (h) (Homo sapiens, UniProt P35968); assay: KDR (VEGFR2) (enzymatic assay), TR-FRET; type: biochemical; details: 3 μM ATP; pIC50 = -log IC50 (M); read-out: VEGFR KDR pIC50 (converted)
Sequence of KDR (h) (P35968 20-1356): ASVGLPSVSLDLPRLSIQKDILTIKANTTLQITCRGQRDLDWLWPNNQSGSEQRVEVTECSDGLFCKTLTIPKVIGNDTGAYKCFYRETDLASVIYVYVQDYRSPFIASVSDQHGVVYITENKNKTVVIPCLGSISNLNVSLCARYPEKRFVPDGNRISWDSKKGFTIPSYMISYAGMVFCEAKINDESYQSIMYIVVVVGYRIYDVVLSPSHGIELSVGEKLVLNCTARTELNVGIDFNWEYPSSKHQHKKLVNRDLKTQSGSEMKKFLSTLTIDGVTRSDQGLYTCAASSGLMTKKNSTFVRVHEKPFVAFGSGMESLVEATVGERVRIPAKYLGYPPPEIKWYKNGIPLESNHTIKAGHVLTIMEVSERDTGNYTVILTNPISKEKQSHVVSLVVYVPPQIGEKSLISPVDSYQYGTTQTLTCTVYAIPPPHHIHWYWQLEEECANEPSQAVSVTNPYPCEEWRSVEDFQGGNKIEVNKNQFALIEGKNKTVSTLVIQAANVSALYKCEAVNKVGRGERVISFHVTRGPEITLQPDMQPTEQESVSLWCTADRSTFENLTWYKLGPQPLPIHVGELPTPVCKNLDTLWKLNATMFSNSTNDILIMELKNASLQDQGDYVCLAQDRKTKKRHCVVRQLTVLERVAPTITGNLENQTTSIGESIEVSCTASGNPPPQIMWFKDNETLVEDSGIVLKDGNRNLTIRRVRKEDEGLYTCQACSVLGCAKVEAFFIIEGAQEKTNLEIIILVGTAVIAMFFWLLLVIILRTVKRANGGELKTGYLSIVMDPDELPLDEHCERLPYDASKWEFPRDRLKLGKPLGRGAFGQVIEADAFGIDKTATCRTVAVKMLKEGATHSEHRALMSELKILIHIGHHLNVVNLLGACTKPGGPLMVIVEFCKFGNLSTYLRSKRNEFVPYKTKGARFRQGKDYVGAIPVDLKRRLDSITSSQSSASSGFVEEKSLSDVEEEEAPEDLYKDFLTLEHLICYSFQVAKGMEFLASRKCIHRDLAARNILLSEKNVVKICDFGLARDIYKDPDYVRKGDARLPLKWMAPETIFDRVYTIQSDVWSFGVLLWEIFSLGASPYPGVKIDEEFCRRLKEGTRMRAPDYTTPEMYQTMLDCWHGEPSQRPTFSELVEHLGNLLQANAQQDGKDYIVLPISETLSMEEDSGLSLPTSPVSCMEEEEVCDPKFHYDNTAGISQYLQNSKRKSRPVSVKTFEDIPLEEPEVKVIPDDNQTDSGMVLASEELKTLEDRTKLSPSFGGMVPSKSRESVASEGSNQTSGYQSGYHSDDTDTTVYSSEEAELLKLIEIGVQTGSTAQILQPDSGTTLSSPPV
Description: KDR (VEGFR2) (Enzymatic Assay)
In a final reaction volume of 30 μL, KDR (h) (150 ng/ml) was incubated with 50 mM HEPES pH 7.5, 6 mM MnCl2, 1 mM DTT, 0.1 mM Na3VO4, 0.01% Triton-X-100, 500 nM Btn-Flt3 and 3 μM ATP in the presence of compound (1% DMSO final). After incubation for 120 minutes at room temperature the reaction was stopped with 2.27 nM EU-anti P-Tyr, 7 mM EDTA, 31.25 nM SA-XL-665 and 0.02% BSA which was present for 60 minutes at room temperature. Time-Resolved Fluorescence Resonance Energy Transfer (TR-FRET) signal (ex340 nm. Em 620 nm, em 655 nm) was measured afterwards and results are expressed in RFU (Relative Fluorescence Units). In this assay, the inhibitory effect of different compound concentrations (range 10 μM to 0.1 nM) was determined and used to calculate an IC50 (M) and pIC50 (−log IC50) value.

[10] = 0.4 μM ATP, pIC50 = -log IC50 (M), read-out: FGFR 2 pIC50 (converted)
[11] = 25 μM ATP, pIC50 = -log IC50 (M), read-out: FGFR3 pIC50 (converted)

SMILES | BAF3-KDR (MIN IL3 pIC50) [1] | BAF3-FGFR3 (MIN IL3 pIC50) [2] | IC50 [3] | IC50 [4] | BAF3-FGFR4 (pIC50) [5] | IC50 [6] | IC50 [7, 10] | BAF3-FGFR1 (MIN IL3 pIC50) [8] | melting point | IC50 [9] | IC50 [6, 11] | IC50 [7]
COc1cc(OC)c(F)c(N(CCO)c2ccc3ncn(-c4cnn(C)c4)c(=O)c3c2)c1F [Compound 18] | 5.6 | ~7.68 | 5.01e-09 M | 1.58 nM | 6.6 | 1.58e-09 M | 2.51e-09 M | 7.2 | 165 °C | 3.98e-08 M | – | –
COc1cc(OC)cc(N(CCNC(C)C)c2ccc3ncn(-c4cnn(C)c4)c(=O)c3c2)c1 [Compound 9] | 5.2 | ~7.09 | 5.01e-08 M | 5.01 nM | 6.2 | – | 6.31e-09 M | 7.2 | 142 °C | 5.01e-07 M | 1e-08 M | –
COc1cc(OC)c(Cl)c(N(CCO)c2ccc3ncn(-c4ccccc4)c(=O)c3c2)c1Cl [Compound 5] | <5 | 5.3 | 5.01e-07 M | 63.1 nM | <5 | – | 3.98e-08 M | 5.5 | 251 °C | ~1e-06 M | 2.51e-08 M | –
COc1cc(OC)c(F)c(N(CCNC(C)C)c2ccc3ncn(-c4cnn(C)c4)c(=O)c3c2)c1 [Compound 17] | 5.5 | 7.7 | 3.16e-08 M | 7.94 nM | 6.8 | – | 1e-08 M | 7.6 | 132 °C | 1.26e-07 M | 1.58e-08 M | –
COc1cc(OC)c(Cl)c(N(CCO)c2ccc3ncn(-c4cnn(C)c4)c(=O)c3c2)c1Cl [Compound 10] | ~5 | 6.3 | 2e-07 M | 12.6 nM | 5.1 | – | 1.58e-08 M | 6.2 | 223 °C | 5.01e-07 M | 7.94e-09 M | –
COc1cc(OC)c(F)c(N(CCNC(C)C)c2ccc3ncn(-c4ccccc4)c(=O)c3c2)c1F [Compound 2] | 5.7 | 7.6 | 3.98e-08 M | 6.31 nM | 6.3 | – | 2.51e-08 M | 7.7 | 124 °C | 2.51e-07 M | 2.51e-08 M | –
COc1cc(OC)c(F)c(N(CCO)c2ccc3ncn(-c4ccccc4)c(=O)c3c2)c1 [Compound 6] | <5 | 5.5 | 3.16e-07 M | 79.4 nM | 5.0 | 3.98e-08 M | 5.01e-08 M | 5.5 | 183 °C | > 1e-06 M | – | –
CNCCN(c1ccc2ncn(-c3cnn(C)c3)c(=O)c2c1)c1c(F)c(OC)cc(OC)c1F [Compound 20] | 6.0 | 7.6 | 2.51e-08 M | 10 nM | 6.7 | 1.26e-08 M | 1.26e-08 M | 7.6 | 141 °C | 1.58e-07 M | – | –
COc1cc(OC)c(F)c(N(Cc2ncc[nH]2)c2ccc3ncn(-c4cnn(C)c4)c(=O)c3c2)c1 [Compound 15] | <5 | ~7.15 | 7.94e-09 M | 5.01 nM | 5.8 | – | – | 6.7 | 212 °C | 3.98e-07 M | 2.51e-09 M | 5.01e-09 M
COc1cc(OC)c(F)c(N(CCO)c2ccc3ncn(-c4cnn(C)c4)c(=O)c3c2)c1 [Compound 16] | 5.2 | 6.4 | 2.51e-08 M | 12.6 nM | 5.7 | – | 5.01e-09 M | 6.3 | 164 °C | 2e-07 M | 2.51e-09 M | –
